# Assay results reported in patent publication EP4603105A1, “PHARMACEUTICAL COMPOSITION CONTAINING CYCLIC COMPOUND HAVING SELECTIVE KRAS INHIBITORY EFFECT AGAINST HRAS AND NRAS” (CHUGAI SEIYAKU KABUSHIKI KAISHA, priority 2022, dated 2024).
# Where two headings read alike, the source gives them in different places. Where a SMILES comes first, the peptide text is derived from it. Bridges are numbered along the chain shown (N, C = ends). [ ]: non-standard residue; d: D form. hPhe(3-Cl-4-CF3) = N[C@@H](CCc1ccc(C(F)(F)F)c(Cl)c1)C(=O)O; NPrPhe(4-CF3) = CCCN[C@@H](Cc1ccc(C(F)(F)F)cc1)C(=O)O; NMeGly(cPent) = CN[C@H](C(=O)O)C1CCCC1; NMeD = CN[C@@H](CC(=O)O)C(=O)O; NMeL = CN[C@@H](CC(C)C)C(=O)O; Aze = O=C(O)[C@@H]1CCN1; Ac4c = NC1(C(=O)O)CCC1; Sar = CNCC(=O)O
# Assays:
# [1] = target: GDP-bound NRAS wild-type protein (Homo sapiens, UniProt P01111); experiment: Binding to NRAS by surface plasmon resonance (SPR), KD and KD ratio to KRAS
# Sequence of GDP-bound NRAS wild-type protein (P01111 whole entry): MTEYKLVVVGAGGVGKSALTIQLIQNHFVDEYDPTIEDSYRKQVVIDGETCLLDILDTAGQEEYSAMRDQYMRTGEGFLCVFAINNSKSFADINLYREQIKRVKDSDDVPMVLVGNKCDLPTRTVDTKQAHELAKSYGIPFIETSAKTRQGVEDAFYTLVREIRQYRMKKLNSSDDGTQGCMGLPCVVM
# Outline: (§1)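 Biotinylated GDP-bound RAS was captured at about 100–300 RU. Running buffer: HBS pH 7.4, 10 mM MgCl2, 10 µM GDP, 1 mM DTT, 0.01% Tween 20, 4% DMSO.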
# HRAS wild-type protein = HRAS wild-type protein (Homo sapiens, UniProt P01112); experiment: Binding to HRAS by surface plasmon resonance (SPR), KD and KD ratio to KRAS
# Sequence of HRAS wild-type protein (P01112 whole entry): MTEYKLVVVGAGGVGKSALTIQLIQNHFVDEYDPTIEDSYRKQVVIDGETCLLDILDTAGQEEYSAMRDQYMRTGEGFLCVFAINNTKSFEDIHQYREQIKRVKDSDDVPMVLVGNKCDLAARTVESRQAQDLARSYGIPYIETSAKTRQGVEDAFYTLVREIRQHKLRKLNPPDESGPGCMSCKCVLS
# Outline: as §1
# [2] = tested on: human lung cancer strain NCI-H441; assay type: cell-based
# Outline: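 Step one: dispense the test compound in serial DMSO dilutions. Step three: add the reagent and measure […].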
# [3] = ratio of KD for GDP-bound NRAS wild-type protein to KD for KRAS
# [4] = ratio of KD for HRAS wild-type protein to KD for KRAS
# [5] = NCI-H441 cells, 4 days, CellTiter-Glo, read-out: NCl-H441 IC50
# [6] = ratio of the KD value with respect to GDP-bound NRAS wild-type protein to the KD value with respect to KRAS
# [7] = ratio of the KD value with respect to HRAS wild-type protein to the KD value with respect to KRAS
# [8] = ratio of KD value for GDP-bound NRAS wild-type protein to KD value for KRAS (SPR)
# [9] = ratio of KD value for HRAS wild-type protein to KD value for KRAS (SPR)
SMILES,"NRAS /KRAS [1, 3]",HRAS /KRAS (HRAS wild-type protein; [4]),"IC50 [2, 5]","NRAS /KRAS [1, 6]",HRAS /KRAS (HRAS wild-type protein; [7]),IC50 [2],"NRAS /KRAS [1, 8]",HRAS /KRAS (HRAS wild-type protein; [9])
CCOC[C@H]1C(=O)N[C@@H]([C@@H](C)CC)C(=O)N(C)CC(=O)N(C)[C@H]2C/C=C\CCN(C2=O)[C@@H](Cc2ccc(C3CC3)cc2)C(=O)N(C)CC(=O)N[C@@H](CCc2ccc(C(F)(F)F)c(OC)c2)C(=O)N2C[C@@H](C)C[C@H]2C(=O)NC2(CC(C)(C)C2)C(=O)N(C)[C@@H](C2CCCC2)C(=O)N(C)[C@H](C(=O)N(C)CC)CC(=O)N1C [PP2700],A (a compound having 10 or more and less than 20 is denoted as A),B (a compound having 3 or more and less than 10 is denoted as B),23.1 nM,–,–,–,–,–
CC[C@H](C)[C@@H]1NC(=O)[C@H](CC(C)C)N(C)C(=O)C[C@@H](C(=O)N2CCOCC2)N(C)C(=O)[C@H](CC(F)(F)F)N(C)C(=O)C2(CCCC2)NC(=O)[C@@H]2CCCN2C(=O)[C@H](CCc2cc(F)c(C(F)(F)F)c(F)c2)NC(=O)CN(C)C(=O)[C@H](Cc2ccc(C(F)(F)F)cc2)N2CCCCC[C@@H](C2=O)N(C)C(=O)CN(C)C1=O [PP0506],–,–,–,B (a compound having 3 or more and less than 10 is denoted as B),B (a compound having 3 or more and less than 10 is denoted as B),705 nM,–,–
CCCN1C(=O)[C@@H]2CCN2C(=O)CN(C)C(=O)[C@H]([C@@H](C)CC)NC(=O)[C@H](CC(C)C)N(C)C(=O)C[C@@H](C(=O)N(C)C)N(C)C(=O)[C@H](C2CCCC2)N(C)C(=O)C2(CCC2)NC(=O)[C@@H]2CCCN2C(=O)[C@H](CCc2ccc(C(F)(F)F)c(Cl)c2)NC(=O)CN(C)C(=O)[C@@H]1Cc1ccc(C(F)(F)F)cc1 [PP0441] ([NMeL]I[Sar][Aze][NPrPhe(4-CF3)][Sar][hPhe(3-Cl-4-CF3)]P[Ac4c][NMeGly(cPent)][NMeD]-NMe2; lactam N-11),–,–,–,C (A compound having a KD ratio of 0.1 or more and less than 3 is denoted as C),C (A compound having a KD ratio of 0.1 or more and less than 3 is denoted as C),3.4 nM,–,–
CCO[C@@H]1C[C@H]2C(=O)NC3(CC(C)(C)C3)C(=O)N(C)[C@@H](C3CCCC3)C(=O)N(C)[C@H](C(=O)N(C)C)CC(=O)N(C)[C@@H](C)C(=O)N[C@@H]([C@@H](C)CC)C(=O)N(C)CC(=O)N(C)[C@H]3C/C=C\CCN(C3=O)[C@@H](Cc3ccc(C(F)(F)F)cc3)C(=O)N(C)CC(=O)N[C@@H](CCc3ccc(C(F)(F)F)c(OC)c3)C(=O)N2C1 [PP1674],–,–,–,–,–,5.1 nM,A (a compound having 10 or more and less than 20 is denoted as A),A (a compound having 10 or more and less than 20 is denoted as A)
CCC[C@H]1C(=O)N[C@@H]([C@@H](C)CC)C(=O)N(C)CC(=O)N(C)[C@H]2C/C=C\CCN(C2=O)[C@@H](Cc2ccc(C(F)(F)F)cc2)C(=O)N(C)CC(=O)N[C@@H](CCc2ccc(C3CC3)c(C)c2)C(=O)N2C[C@H](OCC)C[C@H]2C(=O)NC2(CC(C)(C)C2)C(=O)N(C)[C@@H](C2CCCC2)C(=O)N(C)[C@H](C(=O)N(C)C)CC(=O)N1C [PP2855],A (a compound having 10 or more and less than 20 is denoted as A),A (a compound having 10 or more and less than 20 is denoted as A),37.9 nM,–,–,–,–,–
CC[C@H](C)[C@@H]1NC(=O)[C@H](CC)N(C)C(=O)C[C@@H](C(=O)N(CC)CC)N(C)C(=O)[C@H](C2CCCC2)N(C)C(=O)C2(CC(C)(C)C2)NC(=O)[C@@H]2C[C@@H](C)CN2C(=O)[C@H](CCc2ccc(C(F)(F)F)c(OC)c2)NC(=O)CN(C)C(=O)[C@H](Cc2ccc(C)cc2)N2CC/C=C\C[C@@H](C2=O)N(C)C(=O)CN(C)C1=O [PP1841],–,–,–,–,–,24.3 nM,AA (a compound having 20 or more is denoted as AA),A (a compound having 10 or more and less than 20 is denoted as A)
CCC[C@H]1C(=O)N[C@@H]([C@@H](C)CC)C(=O)N(C)CC(=O)N(C)[C@H]2C/C=C\CCN(C2=O)[C@@H](Cc2ccc(C(F)(F)F)cc2)C(=O)N(C)CC(=O)N[C@@H](CCc2ccc(C(F)(F)F)c(C3CC3)c2)C(=O)N2C[C@H](OCC)C[C@H]2C(=O)NC2(CC(C)(C)C2)C(=O)N(C)[C@@H](C2CCCC2)C(=O)N(C)[C@H](C(=O)N(C)C)CC(=O)N1C [PP2852],B (a compound having 3 or more and less than 10 is denoted as B),B (a compound having 3 or more and less than 10 is denoted as B),–,–,–,8.7 nM,–,–
CC[C@H](C)[C@@H]1NC(=O)[C@H](CC)N(C)C(=O)C[C@@H](C(=O)N(C)C)N(C)C(=O)[C@H](C2CCCC2)N(C)C(=O)C2(CCC2)NC(=O)[C@@H]2CCCCN2C(=O)[C@H](CCc2cc(F)c(C(F)(F)F)c(F)c2)NC(=O)CN(C)C(=O)[C@H](Cc2ccc(C(F)(F)F)cc2)N2CCCCC[C@@H](C2=O)N(C)C(=O)CN(C)C1=O [PP0655],–,–,–,B (a compound having 3 or more and less than 10 is denoted as B),B (a compound having 3 or more and less than 10 is denoted as B),125 nM,–,–
CCC[C@H]1C(=O)N[C@@H]([C@@H](C)CC)C(=O)N(C)CC(=O)N(C)[C@H]2C/C=C\CCN(C2=O)[C@@H](Cc2ccc(C)cc2)C(=O)N(C)CC(=O)N[C@@H](CCc2ccc(C(F)(F)F)c(OC)c2)C(=O)N2C[C@H](OCC)C[C@H]2C(=O)NC2(CCC2)C(=O)N(C)[C@@H](C2CCCC2)C(=O)N(C)[C@H](C(=O)N(C)C)CC(=O)N1C [PP1871],–,–,–,–,–,13.1 nM,A (a compound having 10 or more and less than 20 is denoted as A),A (a compound having 10 or more and less than 20 is denoted as A)
CCO[C@@H]1C[C@H]2C(=O)NC3(CCC3)C(=O)N(C)[C@@H](C3CCCC3)C(=O)N(C)[C@@H](C(C)C)CC(=O)N(C)[C@@H](CC3CC3)C(=O)N[C@@H]([C@@H](C)CC)C(=O)N(C)CC(=O)N(C)[C@H]3C/C=C\CCN(C3=O)[C@@H](Cc3ccc(C(F)(F)F)cc3)C(=O)N(C)CC(=O)N[C@@H](CCc3cc(F)c(C(F)(F)F)c(F)c3)C(=O)N2C1 [PP1596],–,–,–,–,–,18.1 nM,A (a compound having 10 or more and less than 20 is denoted as A),B (a compound having 3 or more and less than 10 is denoted as B)
CCC[C@H]1C(=O)N[C@@H]([C@@H](C)CC)C(=O)N(C)CC(=O)N(C)[C@H]2C/C=C\CCN(C2=O)[C@@H](Cc2ccc(C(F)(F)F)cc2)C(=O)N(C)CC(=O)N[C@@H](CCc2ccc(CC)c(OC)c2)C(=O)N2C[C@H](OCC)C[C@H]2C(=O)NC2(CC(C)(C)C2)C(=O)N(C)[C@@H](C2CCCC2)C(=O)N(C)[C@H](C(=O)N(C)C)CC(=O)N1C [PP2869],A (a compound having 10 or more and less than 20 is denoted as A),A (a compound having 10 or more and less than 20 is denoted as A),37.6 nM,–,–,–,–,–
CC[C@H](C)[C@@H]1NC(=O)[C@H](CC(F)(F)F)N(C)C(=O)C[C@@H](C(=O)N2CCOCC2)N(C)C(=O)[C@H](C2CCCC2)N(C)C(=O)C2(CCCC2)NC(=O)[C@@H]2CCCN2C(=O)[C@H](CCc2cc(F)c(C(F)(F)F)c(F)c2)NC(=O)CN(C)C(=O)[C@H](Cc2ccc(C(F)(F)F)cc2)N2CCCCC[C@@H](C2=O)N(C)C(=O)CN(C)C1=O [PP0520],–,–,–,B (a compound having 3 or more and less than 10 is denoted as B),B (a compound having 3 or more and less than 10 is denoted as B),17.1 nM,–,–
CCC[C@H]1C(=O)N[C@@H](C2CCCC2)C(=O)N(C)CC(=O)N(C)[C@H]2C/C=C\CCN(C2=O)[C@@H](Cc2ccc(C)cc2)C(=O)N(C)CC(=O)N[C@@H](CCc2cc(F)c(C(F)(F)F)c(F)c2)C(=O)N2CC3(CC3)C[C@H]2C(=O)NC2(CC(C)(C)C2)C(=O)N(C)[C@@H](CC(C)(C)C)C(=O)N(C)[C@H](C(=O)N(C)C)CC(=O)N1C [PP2999],AA (a compound having 20 or more is denoted as AA),A (a compound having 10 or more and less than 20 is denoted as A),–,–,–,11.4 nM,–,–
CC[C@H](C)[C@@H]1NC(=O)[C@H](CC(C)C)NC(=O)C[C@@H](C(=O)N2CCOCC2)N(C)C(=O)[C@H](C2CCCC2)N(C)C(=O)C2(CCCC2)NC(=O)[C@@H]2CCCN2C(=O)[C@H](CCc2cc(F)c(C(F)(F)F)c(F)c2)NC(=O)CN(C)C(=O)[C@H](Cc2ccc(C(F)(F)F)cc2)N2CCCCC[C@@H](C2=O)N(C)C(=O)CN(C)C1=O [PP0516],–,–,–,B (a compound having 3 or more and less than 10 is denoted as B),B (a compound having 3 or more and less than 10 is denoted as B),457 nM,–,–
CCC[C@H]1C(=O)N[C@@H](C2CCCCC2)C(=O)N(C)CC(=O)N(C)[C@H]2C/C=C\CCN(C2=O)[C@@H](Cc2ccc(C(F)(F)F)cc2)C(=O)N(C)CC(=O)N[C@@H](CCc2ccc(C(F)(F)F)c(Cl)c2)C(=O)N2C[C@H](OCC)C[C@H]2C(=O)NC2(CC(C)(C)C2)C(=O)N(C)[C@@H](CC(C)(C)C)C(=O)N(C)[C@H](C(=O)N(C)C)CC(=O)N1C [PP3014],AA (a compound having 20 or more is denoted as AA),A (a compound having 10 or more and less than 20 is denoted as A),–,–,–,20.6 nM,–,–
CCO[C@@H]1C[C@H]2C(=O)NC3(CCC3)C(=O)N(C)[C@@H](C3CCCC3)C(=O)N(C)[C@H](C(=O)N3CCOCC3)CC(=O)N(C)[C@@H](CC3CCCCC3)C(=O)N[C@@H]([C@@H](C)CC)C(=O)N(C)CC(=O)N(C)[C@H]3CCCCN(C3=O)[C@@H](Cc3ccc(C(F)(F)F)cc3)C(=O)N(C)CC(=O)N[C@@H](CCc3cc(F)c(C(F)(F)F)c(F)c3)C(=O)N2C1 [PP0716],–,–,–,C (A compound having a KD ratio of 0.1 or more and less than 3 is denoted as C),B (a compound having 3 or more and less than 10 is denoted as B),6.3 nM,–,–
